Literature values, collected in US7026301B2, “Method of orally treating inflammatory skin conditions with prodrugs of 5-fluorouracil” (New York University, priority 2002, dated 2006).

Experiments:
[1] = molecular target: T1, dihydropyrimidine dehydrogenase (DPD) (Homo sapiens, UniProt Q12882)
T1 construct: host or cells: endogenous enzyme of patients (in vivo)
T1 sequence (Q12882 4-1025): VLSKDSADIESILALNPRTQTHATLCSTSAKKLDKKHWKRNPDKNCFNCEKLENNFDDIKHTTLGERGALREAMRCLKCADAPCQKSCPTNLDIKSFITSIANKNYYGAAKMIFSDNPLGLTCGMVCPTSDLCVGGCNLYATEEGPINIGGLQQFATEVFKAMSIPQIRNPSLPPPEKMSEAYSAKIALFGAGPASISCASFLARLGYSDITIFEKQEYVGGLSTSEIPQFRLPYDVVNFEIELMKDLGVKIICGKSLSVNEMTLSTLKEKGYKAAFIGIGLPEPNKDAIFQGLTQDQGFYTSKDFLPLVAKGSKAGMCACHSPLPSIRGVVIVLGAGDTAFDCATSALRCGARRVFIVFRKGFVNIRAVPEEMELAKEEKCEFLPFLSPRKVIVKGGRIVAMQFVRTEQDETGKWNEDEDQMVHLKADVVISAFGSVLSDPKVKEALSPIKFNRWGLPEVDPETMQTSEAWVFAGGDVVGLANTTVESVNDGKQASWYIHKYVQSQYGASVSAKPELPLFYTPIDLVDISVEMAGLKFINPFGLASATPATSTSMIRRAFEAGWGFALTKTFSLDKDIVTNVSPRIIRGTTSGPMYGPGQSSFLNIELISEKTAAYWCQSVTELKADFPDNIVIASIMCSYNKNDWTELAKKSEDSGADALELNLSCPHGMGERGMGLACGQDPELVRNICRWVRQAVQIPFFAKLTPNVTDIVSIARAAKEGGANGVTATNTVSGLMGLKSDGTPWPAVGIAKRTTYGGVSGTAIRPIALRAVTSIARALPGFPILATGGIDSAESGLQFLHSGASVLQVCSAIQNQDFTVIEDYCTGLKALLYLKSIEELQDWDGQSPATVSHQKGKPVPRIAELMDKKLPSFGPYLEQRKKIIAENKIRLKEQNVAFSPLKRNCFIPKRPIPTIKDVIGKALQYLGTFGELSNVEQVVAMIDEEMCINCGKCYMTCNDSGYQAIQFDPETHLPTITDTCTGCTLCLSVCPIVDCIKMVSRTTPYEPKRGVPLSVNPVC

[2] = treated patients; for patients in whom hand-foot syndrome occurred: any grade
[3] = humans

| share of the injected dose deactivated by DPD [1] | patients in whom hand-foot syndrome occurred [2] | patients with the most severe form (grade 3) of hand-foot syndrome [2] | oral absorption [3] | Compound |
| --- | --- | --- | --- | --- |
| more than 85% | – | – | – | O=c1[nH]cc(F)c(=O)[nH]1 [5-FU, 5-fluorouracil] |
| – | 6% | 1% | – | 5-FU/leucovorin |
| – | 53% | 17% | rapidly and almost completely absorbed | CCCCCOC(=O)Nc1nc(=O)n([C@@H]2O[C@H](C)[C@@H](O)[C@H]2O)cc1F [capecitabine, N^4-pentyloxycarbonyl-5′-deoxy-5-fuorocytidine] |
